Data published in patent US10450549B2, “Aryloxyphenoxypropionate tolerance in turfrgass species and use of AAD1 as a selectable marker” (Dow AgroSciences, LLC, priority 2004, dated 2019).

Tests used:
[1] = tested on: homozygous T4 lines of Arabidopsis; test: 2,4-D injury and AAD1 (v3) expression in homozygous T4 Arabidopsis lines; assay type: in vivo, Arabidopsis thaliana; details: 800 g ae/ha and above; 14 DAT
Protocol: An experiment was designed to examine if the level of AAD1 (v3) expression in Arabidopsis varies at different growth stages. A high-tolerance, homozygous, AAD1 (v3) T4 line (id=PAAD1.01.345.163) was grown in greenhouse. […] Two leaves, the 3rd leaf from the top and the 5th leaf from the bottom, were harvested from 5 plants, both treated and untreated, and analyzed by ELISA and Western Blotting (as described in Example 11) experiments at 4, 10, 14, 20 and 25 DAT. […] The protein levels accumulated in older plants with some significant protein degradation at the later time points.
These plants also expressed high level of AAD1 (v3), from 0.1 to 0.25% of (FIG. 9B). On the contrary, the low tolerance line expressed less than 0.1% of AAD1 (v3) in TSP and suffered observable injury.

[2] = tested on: AAD1 (v3) T1 tobacco (events 721(2)-013.010 and 721(3)-008.005); test: Segregating AAD1 T1 tobacco response to phenoxy auxin herbicides; assay type: in vivo, Nicotiana tabacum; details: rates below 1× field rates (560 g ae/ha); either event
From the text: Two AAD1 (v3) tobacco lines (event 721(2)-013.010 and 721(3)-008.005) were chosen from the T0 generation. The T1 seed was stratified, and sown into selection trays much like that of Arabidopsis (Example 6.4), followed by selective removal of untransformed nulls in this segregating population with 280 g ai/ha glufosinate (PAT selection). Survivors were transferred to individual 3-inch pots in the greenhouse. […] Improved consistency of response is anticipated in T1 plants not having come directly from tissue culture. These plants were compared against wildtype KY 160 tobacco. All plants were sprayed with the use of a track sprayer set at 187 L/ha. […] All applications were formulated in 200 mM Hepes buffer (pH 7.5). Each treatment was replicated 4 times. Plants were evaluated at 3 and 14 days after treatment. Plants were assigned injury rating with respect to stunting, chlorosis, and necrosis. The T1 generation is segregating, so some variable response is expected due to difference in zygosity. (Table 28).

[3] = tested on: non-transformed (NT) ‘Shamrock’ Kentucky bluegrass; test: Haloxyfop-R-methyl on non-transformed Kentucky bluegrass controls; assay type: in vivo; details: similar treatment regimes
Protocol: The selected T0 plants were sprayed with haloxyfop-R-methyl (Gallant Super®, DOW AGROSCIENCES, INC.) at rates ranging from 140 to 560 g ae/ha. […] This rate would also control susceptible monocot weed species. Measured amounts were placed individually in 25 mL glass vials and dissolved in a 12 mL volume of 1.0% (v/v) Agri-Dex® Crop Oil Concentrate (COC).
(§1) Spray solutions were applied to the plant material with an overhead Mandel™ track sprayer equipped with a 8002E nozzles calibrated to deliver 187 L/ha over an application area of 0.503 square meters (m^2) at a spray height of 18 inches (46 cm) above average plant canopy height. Control plants were sprayed in the same manner with the COC blank.
The treated plants and control plants were placed in a greenhouse and watered by sub-irrigation to prevent wash-off of the test compounds. At various times after application, the condition of the test plants as compared with that of the untreated plants was determined visually and scored on a scale of 0 to 100 percent, where 0 corresponds to no injury or growth inhibition, and 100 corresponds to complete kill. Regenerated, non-transformed (NT) ‘Shamrock’ Kentucky bluegrass plants and/or seed-derived clonally propagated plants served as haloxyfop sensitive controls.

pDAS1421 T0 corn = test: Whole plant quizalofop screening of T0 corn lineages containing AAD1 (v3) and AHAS (pDAS1421); assay type: in vivo; details: number of lineages
Protocol: Seventy-two Agrobacterium-transformed events were selected on various levels of R-haloxyfop acid and R-cyhalofop acid in vitro. Twenty-two callus samples were analyzed by Southern blot analysis for stable integration of AAD1 (v3) into the genome as described previously.
A minimum six regenerated clonal lineages per event were moved to soil in the greenhouse and screened using a track sprayer as previously described to apply 35 g ae/ha quizalofop when 2-4 new, normal leaves had emerged (see section 8.3.3). Presence of AAD1 protein on a Western blot correlated perfectly with herbicide resistance in the T0 generation regardless of which AOPP herbicide was used for selection. There is no negative impact of the second HTC gene (AHAS) on the function of the AAD1 (v3).

[4] = tested on: AAD1-transformed T0 2095-2 creeping bentgrass events; test: Quizalofop-p-ethyl postemergence on AAD1 (pDAB5042) creeping bentgrass line 2095-2; assay type: in vivo, Agrostis stolonifera
Protocol: Selected T0 plants were sprayed with quizalofop-p-ethyl (Assure II®, DUPONT, Wilmington, Del.) at rates ranging from 60 to 2,240 g ae/ha. […] This rate also controls susceptible monocot weed species. Measured amounts were placed individually in 25 mL glass vials and dissolved in a 4 mL volume of 1.0% (v/v) Agri-Dex® Crop Oil Concentrate (COC) from HELENA CHEMICAL (Collierville, Tenn.). Application solutions were prepared by serial dilution of the highest rate applied. One-half the volume of the highest rate stock solution (2 mL) was transferred to a clean 25 mL vial containing an equal volume of 1% COC and the diluted solution was mixed. Additional dilutions were prepared similarly by removing one-half the volume of the previous concentration (2 mL), and adding to an equal volume of 1% COC and mixing. When preparing the lowest concentration, the remaining one-half volume was discarded. All 2 mL stock solutions were further diluted by adding 10 mL aqueous mixture of 1.0% (v/v) COC, so that the final spray solutions were 12 mL in volume and contained 1.0% (v/v) COC.
as §1
The treated plants and control plants were placed in a greenhouse, and watered by sub-irrigation to prevent wash-off of the test compounds. At various times after application, the condition of the test plants as compared with that of the untreated plants was determined visually and scored on a scale of 0 to 100 percent (where 0 corresponds to no injury or growth inhibition and 100 corresponds to complete kill). Regenerated, non-transformed (NT) ‘Crenshaw’ or elite line 2905-2 creeping bentgrass plants and/or seed-derived clonally propagated plants served as quizalofop sensitive controls. […]

## O=C(O)COc1ccc(Cl)cc1Cl [2,4-D, 2,4-dichlorophenoxyacetic acid]
[1]
  response of control plants: died
[2]
  injury of T1 AAD1 (v3) tobacco: No injury was observed

## CC(Oc1ccc(Oc2ncc(C(F)(F)F)cc2Cl)cc1)C(=O)O (centres unmarked) [haloxyfop]
[3]
  injury of control, non-transgenic plants: 60-100%

## C[C@@H](Oc1ccc(Oc2cnc3cc(Cl)ccc3n2)cc1)C(=O)O [quizalofop]
pDAS1421 T0 corn; event 1421[3]-036
  Assessment of T0 lineages resistant to 35 g ae/ha quizalofop: Resistant: 8
  Assessment of T0 lineages resistant to 35 g ae/ha quizalofop: Sensitive: 0
pDAS1421 T0 corn; event 1421[4]-031
  Assessment of T0 lineages resistant to 35 g ae/ha quizalofop: Resistant: 9
  Assessment of T0 lineages resistant to 35 g ae/ha quizalofop: Sensitive: 0
pDAS1421 T0 corn; event 1421[4]-032
  Assessment of T0 lineages resistant to 35 g ae/ha quizalofop: Resistant: 8
  Assessment of T0 lineages resistant to 35 g ae/ha quizalofop: Sensitive: 0
pDAS1421 T0 corn; event 1421[4]-033
  Assessment of T0 lineages resistant to 35 g ae/ha quizalofop: Resistant: 12
  Assessment of T0 lineages resistant to 35 g ae/ha quizalofop: Sensitive: 0
pDAS1421 T0 corn; event 1421[4]-034
  Assessment of T0 lineages resistant to 35 g ae/ha quizalofop: Resistant: 8
  Assessment of T0 lineages resistant to 35 g ae/ha quizalofop: Sensitive: 0
pDAS1421 T0 corn; event 1421[4]-035
  Assessment of T0 lineages resistant to 35 g ae/ha quizalofop: Resistant: 6
  Assessment of T0 lineages resistant to 35 g ae/ha quizalofop: Sensitive: 0
pDAS1421 T0 corn; event 1421[21]-016
  Assessment of T0 lineages resistant to 35 g ae/ha quizalofop: Resistant: 8
  Assessment of T0 lineages resistant to 35 g ae/ha quizalofop: Sensitive: 0
pDAS1421 T0 corn; event 1421[22]-020
  Assessment of T0 lineages resistant to 35 g ae/ha quizalofop: Resistant: 8
  Assessment of T0 lineages resistant to 35 g ae/ha quizalofop: Sensitive: 0
pDAS1421 T0 corn; event 1421[22]-022
  Assessment of T0 lineages resistant to 35 g ae/ha quizalofop: Resistant: 8
  Assessment of T0 lineages resistant to 35 g ae/ha quizalofop: Sensitive: 0
pDAS1421 T0 corn; event 1421[22]-023
  Assessment of T0 lineages resistant to 35 g ae/ha quizalofop: Resistant: 8
  Assessment of T0 lineages resistant to 35 g ae/ha quizalofop: Sensitive: 0
[4]; 120, 480 and 960 g ae/ha, 22 to 50 DAA
  mean injury, pDAB5042 2095-2 events: less than 25%
[4]; 120 g ae/ha
  injury of 48 of the 53 individual 2095-2 events: ≤ 20%
  injury of four 2095-2 events: between about 25% and 35% injury
